Test results taken from publication PMC8699473, “An Easily Expandable Multi-Drug LC-MS Assay for the Simultaneous Quantification of 57 Oral Antitumor Drugs in Human Plasma” (Cancers, 2021).

Test: Long-term stability in spiked pooled human plasma

| SMILES | Long-term stability, 1 month, -20°C Accuracy [%] (validation standard 2xLLOV) | Long-term stability, 1 month, -80°C Accuracy [%] (validation standard 2xLLOV) | Long-term stability, 2 month, -20°C Accuracy [%] (validation standard 2xLLOV) | Long-term stability, 2 month, -80°C Accuracy [%] (validation standard 2xLLOV) | Long-term stability, 3 month, -20°C Accuracy [%] (validation standard 2xLLOV) | Long-term stability, 3 month, -80°C Accuracy [%] (validation standard 2xLLOV) | Long-term stability, 6 weeks, 4°C, without daylight Accuracy [%] (validation standard 2xLLOV) | Long-term stability, 1 month, -20°C Accuracy [%] (validation standard LLOV) | Long-term stability, 1 month, -80°C Accuracy [%] (validation standard LLOV) | Long-term stability, 2 month, -20°C Accuracy [%] (validation standard LLOV) | Long-term stability, 2 month, -80°C Accuracy [%] (validation standard LLOV) | Long-term stability, 3 month, -20°C Accuracy [%] (validation standard LLOV) | Long-term stability, 3 month, -80°C Accuracy [%] (validation standard LLOV) | Long-term stability, 6 weeks, 4°C, without daylight Accuracy [%] (validation standard LLOV) | Long-term stability, 1 month, -20°C Accuracy [%] (validation standard MOV) | Long-term stability, 1 month, -80°C Accuracy [%] (validation standard MOV) | Long-term stability, 2 month, -20°C Accuracy [%] (validation standard MOV) | Long-term stability, 2 month, -80°C Accuracy [%] (validation standard MOV) | Long-term stability, 3 month, -20°C Accuracy [%] (validation standard MOV) | Long-term stability, 3 month, -80°C Accuracy [%] (validation standard MOV) | other results |
| --- | --- | --- | --- | --- | --- | --- | --- | --- | --- | --- | --- | --- | --- | --- | --- | --- | --- | --- | --- | --- | --- |
| COc1cc2c(Nc3ccc(Br)cc3F)ncnc2cc1OCC1CCN(C)CC1 [Vandetanib] | 99.7 | 97.7 | 105.9 | 106.4 | 101.7 | 101.7 | 92.2 | 95.3 | 88.9 | 97.5 | 97.6 | 87.6 | 83.6 | 85.4 | 98.6 | 95.9 | 105.7 | 105.2 | 105.3 | 104.4 | Long-term stability, 6 weeks, 4°C, without daylight Accuracy [%] (validation standard MOV): 100.6%; Long-term stability, 1 month, -20°C Accuracy [%] (validation standard ULOV): 93.1%; Long-term stability, 1 month, -80°C Accuracy [%] (validation standard ULOV): 88.0%; Long-term stability, 2 month, -20°C Accuracy [%] (validation standard ULOV): 98.6%; Long-term stability, 2 month, -80°C Accuracy [%] (validation standard ULOV): 98.6%; Long-term stability, 3 month, -20°C Accuracy [%] (validation standard ULOV): 97.4%; Long-term stability, 3 month, -80°C Accuracy [%] (validation standard ULOV): 98.8%; Long-term stability, 6 weeks, 4°C, without daylight Accuracy [%] (validation standard ULOV): 93.5% |
| CNC(=O)c1ccccc1Sc1ccc2c(/C=C/c3ccccn3)n[nH]c2c1 [Axitinib] | 86.8 | 86.83 | 87.6 | 94.2 | 92.9 | 100.1 | 66.5 | 87.8 | 83.07 | 110.1 | 90.5 | 107.3 | 102.5 | 49.2 | 89.8 | 87.50 | 87.7 | 92.2 | 95.9 | 90.5 | Long-term stability, 6 weeks, 4°C, without daylight Accuracy [%] (validation standard MOV): 100.5%; Long-term stability, 1 month, -20°C Accuracy [%] (validation standard ULOV): 92.0%; Long-term stability, 1 month, -80°C Accuracy [%] (validation standard ULOV): 87.13%; Long-term stability, 2 month, -20°C Accuracy [%] (validation standard ULOV): 88.8%; Long-term stability, 2 month, -80°C Accuracy [%] (validation standard ULOV): 91.3%; Long-term stability, 3 month, -20°C Accuracy [%] (validation standard ULOV): 86.8%; Long-term stability, 3 month, -80°C Accuracy [%] (validation standard ULOV): 91.9%; Long-term stability, 6 weeks, 4°C, without daylight Accuracy [%] (validation standard ULOV): 91.2% |
| Cc1nc(Nc2ncc(C(=O)Nc3c(C)cccc3Cl)s2)cc(N2CCN(CCO)CC2)n1 [Dasatinib] | 99.2 | 92.5 | 98.2 | 96.3 | 102.0 | 99.1 | 72.6 | 108.6 | 89.0 | 82.2 | 84.9 | 81.3 | 85.5 | 79.4 | 97.7 | 91.3 | 92.8 | 92.3 | 102.9 | 101.1 | Long-term stability, 6 weeks, 4°C, without daylight Accuracy [%] (validation standard MOV): 102.3%; Long-term stability, 1 month, -20°C Accuracy [%] (validation standard ULOV): 97.7%; Long-term stability, 1 month, -80°C Accuracy [%] (validation standard ULOV): 93.4%; Long-term stability, 2 month, -20°C Accuracy [%] (validation standard ULOV): 95.6%; Long-term stability, 2 month, -80°C Accuracy [%] (validation standard ULOV): 100.4%; Long-term stability, 3 month, -20°C Accuracy [%] (validation standard ULOV): 104.5%; Long-term stability, 3 month, -80°C Accuracy [%] (validation standard ULOV): 105.8%; Long-term stability, 6 weeks, 4°C, without daylight Accuracy [%] (validation standard ULOV): 97.9% |
| CO[C@@H]1[C@H](N(C)C(=O)c2ccccc2)C[C@H]2O[C@]1(C)n1c3ccccc3c3c4c(c5c6ccccc6n2c5c31)C(=O)NC4 [Midostaurin] | 105.5 | 106.8 | 106.0 | 108.5 | 97.1 | 106.8 | 94.2 | 109.4 | 106.4 | 106.5 | 101.2 | 102.8 | 112.8 | 102.3 | 105.8 | 108.1 | 113.7 | 116.3 | 102.0 | 102.9 | Long-term stability, 6 weeks, 4°C, without daylight Accuracy [%] (validation standard MOV): 103.5%; Long-term stability, 1 month, -20°C Accuracy [%] (validation standard ULOV): 107.3%; Long-term stability, 1 month, -80°C Accuracy [%] (validation standard ULOV): 103.4%; Long-term stability, 2 month, -20°C Accuracy [%] (validation standard ULOV): 118.6%; Long-term stability, 2 month, -80°C Accuracy [%] (validation standard ULOV): 111.4%; Long-term stability, 3 month, -20°C Accuracy [%] (validation standard ULOV): 93.8%; Long-term stability, 3 month, -80°C Accuracy [%] (validation standard ULOV): 107.0%; Long-term stability, 6 weeks, 4°C, without daylight Accuracy [%] (validation standard ULOV): 97.3% |
| O=C(Nc1cnn2ccc(N3CCC[C@@H]3c3cc(F)ccc3F)nc12)N1CC[C@H](O)C1 [Larotrectinib] | 97.9 | 92.9 | 103.6 | 104.7 | 100.8 | 98.8 | 106.7 | 85.6 | 87.5 | 103.5 | 102.1 | 96.4 | 94.2 | 115.2 | 96.7 | 97.2 | 99.1 | 103.2 | 96.2 | 91.1 | Long-term stability, 6 weeks, 4°C, without daylight Accuracy [%] (validation standard MOV): 105.2%; Long-term stability, 1 month, -20°C Accuracy [%] (validation standard ULOV): 95.0%; Long-term stability, 1 month, -80°C Accuracy [%] (validation standard ULOV): 95.5%; Long-term stability, 2 month, -20°C Accuracy [%] (validation standard ULOV): 102.5%; Long-term stability, 2 month, -80°C Accuracy [%] (validation standard ULOV): 104.6%; Long-term stability, 3 month, -20°C Accuracy [%] (validation standard ULOV): 97.8%; Long-term stability, 3 month, -80°C Accuracy [%] (validation standard ULOV): 95.6%; Long-term stability, 6 weeks, 4°C, without daylight Accuracy [%] (validation standard ULOV): 98.0% |
| O=c1[nH]c(=O)n([C@H]2C[C@H](O)[C@@H](CO)O2)cc1C(F)(F)F [Trifluridine] | 112.0 | 105.0 | 107.3 | 104.3 | 103.6 | 99.5 | 68.8 | 97.0 | 95.2 | 79.5 | 70.3 | 89.9 | 85.8 | 49.1 | 99.4 | 94.6 | 109.3 | 104.7 | 92.2 | 90.8 | Long-term stability, 6 weeks, 4°C, without daylight Accuracy [%] (validation standard MOV): 59.0%; Long-term stability, 1 month, -20°C Accuracy [%] (validation standard ULOV): 93.7%; Long-term stability, 1 month, -80°C Accuracy [%] (validation standard ULOV): 88.8%; Long-term stability, 2 month, -20°C Accuracy [%] (validation standard ULOV): 98.4%; Long-term stability, 2 month, -80°C Accuracy [%] (validation standard ULOV): 95.5%; Long-term stability, 3 month, -20°C Accuracy [%] (validation standard ULOV): 82.1%; Long-term stability, 3 month, -80°C Accuracy [%] (validation standard ULOV): 79.9%; Long-term stability, 6 weeks, 4°C, without daylight Accuracy [%] (validation standard ULOV): 27.1% |
| CN(C)C/C=C/C(=O)Nc1cc2c(Nc3ccc(F)c(Cl)c3)ncnc2cc1O[C@H]1CCOC1 [Afatinib] | 79.7 | 90.7 | 72.1 | 92.5 | 76.9 | 94.1 | 26.7 | 70.0 | 75.4 | 68.4 | 85.8 | 68.4 | 90.0 | 2.9 | 87.9 | 93.1 | 84.4 | 96.0 | 78.2 | 96.4 | Long-term stability, 6 weeks, 4°C, without daylight Accuracy [%] (validation standard MOV): 44.2%; Long-term stability, 1 month, -20°C Accuracy [%] (validation standard ULOV): 86.5%; Long-term stability, 1 month, -80°C Accuracy [%] (validation standard ULOV): 91.2%; Long-term stability, 2 month, -20°C Accuracy [%] (validation standard ULOV): 88.3%; Long-term stability, 2 month, -80°C Accuracy [%] (validation standard ULOV): 96.0%; Long-term stability, 3 month, -20°C Accuracy [%] (validation standard ULOV): 82.8%; Long-term stability, 3 month, -80°C Accuracy [%] (validation standard ULOV): 92.1%; Long-term stability, 6 weeks, 4°C, without daylight Accuracy [%] (validation standard ULOV): 37.3% |
| CCN1CCN(Cc2ccc(Nc3ncc(F)c(-c4cc(F)c5nc(C)n(C(C)C)c5c4)n3)nc2)CC1 [Abemaciclib] | 95.0 | 90.1 | 109.1 | 111.4 | 98.8 | 103.4 | 92.0 | 103.5 | 88.4 | 107.2 | 112.7 | 95.7 | 101.8 | 86.3 | 103.0 | 96.2 | 107.3 | 105.5 | 104.4 | 101.8 | Long-term stability, 6 weeks, 4°C, without daylight Accuracy [%] (validation standard MOV): 106.3%; Long-term stability, 1 month, -20°C Accuracy [%] (validation standard ULOV): 102.4%; Long-term stability, 1 month, -80°C Accuracy [%] (validation standard ULOV): 97.8%; Long-term stability, 2 month, -20°C Accuracy [%] (validation standard ULOV): 106.0%; Long-term stability, 2 month, -80°C Accuracy [%] (validation standard ULOV): 105.1%; Long-term stability, 3 month, -20°C Accuracy [%] (validation standard ULOV): 103.5%; Long-term stability, 3 month, -80°C Accuracy [%] (validation standard ULOV): 99.9%; Long-term stability, 6 weeks, 4°C, without daylight Accuracy [%] (validation standard ULOV): 99.1% |
